What all share (type): cell-based
In one data set the test system is Live Jurkat cells. The experiment in a line: Flow cytometry of ROS formation in live Jurkat cells (Example 4). To be noted: 100 μM Menadione or 500 nM PMA, 1 hr; 5 μM Far Red ROS Sensor 30 min; 635 nm excitation, emission 650-670 nm. The protocol:
Live Jurkat cells were treated with or without either 100 μM Menadione or 500 nM phorbol myristate acetate (PMA) for 1 hr. The cells were stained with 5 μM Far Red ROS Sensor and Hoechst 33342 for 30 mins. The cells were washed 3 times with PBS and then analyzed at approximately 400 events per second on a BD® LSR II flow cytometer (Beckton Dickinson, Franklin Lakes, N.J.) with 635 nm laser excitation and fluorescence emission collected from 650-670 nm.
For orientation: A flow cytometer gives signals particle by particle.

In a further data set the test system is RAW macrophages. The experiment in a line: Specificity of ROS signal: NADPH oxidase inhibitor in LPS-treated RAW cells (Example 8). To be noted: 500 ng/mL LPS; Far Red ROS Sensor readout. As for the experimental part:
(§1) BPAE cells or RAW macrophages were plated in 96-well plates. BPAE cells were treated with or without 100 μM Menadione for 1 h. 100 μM of superoxide scavenger, MnTBAP was added to some of the control and menadione-treated wells for the last 30 min of incubation. RAW cells were treated with or without 500 ng/mL of Lipopolysachharide (LPS) with or without Diphenylenelodinium (DPI), an NADPH oxidase inhibitor.

A further data set relates to BPAE cells. The experiment in a line: Specificity of ROS signal: superoxide scavenger in menadione-treated BPAE cells (Example 8). The following applies: 100 μM MnTBAP, last 30 min; 100 μM Menadione 1 h; Far Red ROS Sensor readout. The protocol:
as §1

The next data set relates to HepG2 cells. The experiment in a line: Multiplexed measurement of oxidative stress, cytotoxicity and apoptosis in HepG2 cells (Example 10). The following applies: 50 μM Nefazodone 24 h. The protocol: For the last 30 min of Nefazodone treatment, the cells were either stained with 5 μM Far Red ROS Sensor and 20 nM Image-IT® DEAD Green™ viability stain (Life Technologies Corp., Carlsbad, Calif.), FIG. 10a) or 5 μM Far Red ROS Sensor and 5 μM fluorogenic CaspaGreen caspase substrate (FIG. 10b). […] Image-iT® DEAD Green™ measures plasma membrane permeability, a marker for cytotoxicity.

For `CCCCCCCCCCCCCC(=O)O[C@@H]1[C@@H](C)[C@@]2(O)[C@@H](C=C(CO)C[C@]3(O)C(=O)C(C)=C[C@@H]23)[C@@H]2C(C)(C)[C@]12OC(C)=O` [PMA, phorbol myristate acetate], the “ROS formation after treatment” value in the data set with Live Jurkat cells was “increase in ROS formation”.

As to `c1ccc2c(c1)[I+]c1ccccc1-2` [DPI, Diphenylenelodinium], in the data set with RAW macrophages, the “effect on ROS caused by LPS” value is given as “inhibited ROS”.

For `O=C(O)c1ccc(/C2=C3\C=CC(=N3)/C(c3ccc(C(=O)O)cc3)=c3/cc/c4[n]3[Mn]([Cl])[n]3c2ccc3/C(c2ccc(C(=O)O)cc2)=C2/C=CC(=N2)\C=4c2ccc(C(=O)O)cc2)cc1` [MnTBAP], in the data set on BPAE cells, the “effect on ROS caused by Menadione” value is “inhibited ROS”.

On to `CCc1nn(CCCN2CCN(c3cccc(Cl)c3)CC2)c(=O)n1CCOc1ccccc1` [Nefazodone], for which the “apoptosis (fluorogenic CaspaGreen caspase substrate)” value with HepG2 cells (5 μM CaspaGreen caspase substrate) was “increased nuclear staining”. Besides, the “oxidative stress (Far Red ROS Sensor)” value in the data set with HepG2 cells (5 μM Far Red ROS Sensor) was “causes oxidative stress”.

In the case of `CC1=CC(=O)c2ccccc2C1=O` [Menadione], in the data set on Live Jurkat cells, the “ROS formation after treatment” value is “increase in ROS formation”.

Source of the values: patent publication US20180202936A1, “Modified Hydrocyanine Dyes for the Detection of Reactive Oxygen Species” (Life Technologies Corporation, priority 2010, published 2018).
